Measured values published in BindingDB's records for doi:10.1016/S0968-0896(02)00561-8 (Purdue University, 2003).
Where “and” joins values, the source holds several entries; their conditions need not be identical. Equal values may be shown once. Where a name gives a salt, the structure may show the parent alone.

Experiments:
D(3) dopamine receptor = D(3) dopamine receptor (Rattus norvegicus, UniProt P19020)
D(4) dopamine receptor = target: T1, D(4) dopamine receptor (Rattus norvegicus, UniProt P30729)
T1 sequence (P30729 whole entry): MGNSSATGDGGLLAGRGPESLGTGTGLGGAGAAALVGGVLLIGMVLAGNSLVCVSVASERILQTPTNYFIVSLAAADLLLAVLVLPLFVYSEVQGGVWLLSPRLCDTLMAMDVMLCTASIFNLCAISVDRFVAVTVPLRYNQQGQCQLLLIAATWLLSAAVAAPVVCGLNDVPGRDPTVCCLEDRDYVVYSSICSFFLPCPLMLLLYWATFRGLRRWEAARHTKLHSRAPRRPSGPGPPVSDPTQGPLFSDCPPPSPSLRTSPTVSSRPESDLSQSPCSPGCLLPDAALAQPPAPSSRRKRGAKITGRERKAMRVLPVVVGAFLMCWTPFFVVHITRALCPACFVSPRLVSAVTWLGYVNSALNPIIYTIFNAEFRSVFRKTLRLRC

D(2) dopamine receptor = D(2) dopamine receptor (Rattus norvegicus, UniProt P61169)
D(2) dopamine receptor, sequence (P61169 whole entry): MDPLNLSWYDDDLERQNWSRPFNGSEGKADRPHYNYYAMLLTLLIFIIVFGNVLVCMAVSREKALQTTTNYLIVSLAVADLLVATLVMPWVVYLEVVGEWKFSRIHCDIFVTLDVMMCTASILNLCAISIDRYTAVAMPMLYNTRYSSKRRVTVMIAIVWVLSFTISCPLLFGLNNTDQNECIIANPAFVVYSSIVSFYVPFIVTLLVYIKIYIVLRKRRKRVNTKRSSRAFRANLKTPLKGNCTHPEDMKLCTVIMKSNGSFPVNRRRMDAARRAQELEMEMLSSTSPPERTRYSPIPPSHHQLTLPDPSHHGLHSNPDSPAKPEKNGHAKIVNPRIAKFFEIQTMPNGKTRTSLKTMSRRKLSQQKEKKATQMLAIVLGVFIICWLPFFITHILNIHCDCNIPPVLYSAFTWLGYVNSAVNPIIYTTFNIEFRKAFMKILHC

D(1A) dopamine receptor = D(1A) dopamine receptor (Rattus norvegicus, UniProt P18901)
D(1A) dopamine receptor, sequence (P18901 whole entry): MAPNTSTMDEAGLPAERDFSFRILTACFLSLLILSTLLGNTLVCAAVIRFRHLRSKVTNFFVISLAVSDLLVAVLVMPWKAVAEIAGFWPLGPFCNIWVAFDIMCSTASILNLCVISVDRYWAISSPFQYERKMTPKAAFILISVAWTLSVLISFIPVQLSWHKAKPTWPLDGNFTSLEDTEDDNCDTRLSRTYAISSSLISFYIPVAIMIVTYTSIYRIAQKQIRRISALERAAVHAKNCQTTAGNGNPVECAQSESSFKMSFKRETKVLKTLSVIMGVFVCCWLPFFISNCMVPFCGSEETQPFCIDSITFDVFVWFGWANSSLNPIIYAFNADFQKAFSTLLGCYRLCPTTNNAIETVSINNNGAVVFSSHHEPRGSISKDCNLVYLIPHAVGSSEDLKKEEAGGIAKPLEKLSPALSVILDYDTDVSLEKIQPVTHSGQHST

D(3) dopamine receptor, sequence (P19020 whole entry): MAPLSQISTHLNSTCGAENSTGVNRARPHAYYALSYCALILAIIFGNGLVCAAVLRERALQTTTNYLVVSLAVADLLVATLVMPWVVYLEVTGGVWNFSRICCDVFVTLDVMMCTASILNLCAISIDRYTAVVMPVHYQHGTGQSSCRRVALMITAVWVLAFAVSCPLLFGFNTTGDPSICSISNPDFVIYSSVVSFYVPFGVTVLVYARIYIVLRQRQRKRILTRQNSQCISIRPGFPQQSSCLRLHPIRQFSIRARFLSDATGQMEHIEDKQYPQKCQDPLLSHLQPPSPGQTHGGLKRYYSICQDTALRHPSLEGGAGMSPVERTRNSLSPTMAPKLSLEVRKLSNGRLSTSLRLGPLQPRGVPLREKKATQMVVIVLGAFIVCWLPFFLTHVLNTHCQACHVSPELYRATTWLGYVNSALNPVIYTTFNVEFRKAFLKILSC

SMILES | Ki (D(3) dopamine receptor) [nM] | Ki (D(4) dopamine receptor) [nM] | Ki (D(2) dopamine receptor) | Ki (D(1A) dopamine receptor)
CCCN1Cc2ccccc2[C@H]2c3cc(O)c(O)cc3CC[C@@H]21 [Dihydrexidine, N-propyl] | 8.7 | – | – | 180 nM
Cc1cccc2c1CN[C@H]1CCc3cc(O)c(O)cc3[C@H]21 [Dihydrexidine, 4-methyl] | 85 | – | 674 nM | 6.6 nM and 18 nM
CCCN1Cc2c(C)cccc2[C@H]2c3cc(O)c(O)cc3CC[C@@H]21 [Dihydrexidine, 4-methyl-N-propyl] | 2.08 | – | – | 23.4 nM
CCCN1Cc2cccc3c2[C@@H](C1)c1ccc(O)c(O)c1C3 (racemic) [(+/-)-2-propyldinapsoline hydrobromide] | 2.8 | 17 | 39 nM and 60 nM | 170 nM and 1200 nM and 660 nM
Oc1ccc2c(c1O)Cc1cccc3c1[C@H]2CNC3 [Dinapsoline, (R)(+)] | – | 60 | – | –

Second part, led by results:

Ki (D(3) dopamine receptor) [nM] | Ki (D(4) dopamine receptor) [nM] | Ki (D(2) dopamine receptor) | SMILES | Ki (D(1A) dopamine receptor)
14 | 48 | – | C=CCN1Cc2cccc3c2[C@@H](C1)c1ccc(O)c(O)c1C3 (racemic) [Dinapsoline,(+/-)-N-allyl] | –
28 | 220 | 190 nM and 57 nM | Cc1ccc2c3c1Cc1c(ccc(O)c1O)[C@@H]3CNC2 (racemic) [Dinapsoline,(+/-)-6-Methyl] | –
18 | 83 | 36 nM and 19 nM | Cc1ccc2c3c1CNC[C@H]3c1ccc(O)c(O)c1C2 (racemic) [Dinapsoline,(+/-)-4-Methyl] | –
2.5 | 28 | 23 nM and 21 nM | CCCN1Cc2c(C)ccc3c2[C@@H](C1)c1ccc(O)c(O)c1C3 (racemic) [Dinapsoline,(+/-)-4-Methyl-N-propyl] | 200 nM and 1400 nM
4.3 | 63 | 36 nM and 49 nM | C=CCN1Cc2c(C)ccc3c2[C@@H](C1)c1ccc(O)c(O)c1C3 (racemic) [Dinapsoline,(+/-)-4-Methyl-N-allyl] | 56 nM and 140 nM
